According to patent US20220142913A1, “TRANSDERMAL DELIVERY FORMULATIONS” (Albert Einstein College of Medicine, priority 2020, published 2022):
One block for each compound: values may come before it.

Assay: Loading potential / solubility of low solubility agents in PEG400/myristic acid vehicles, nitrite saturated PEG400 and water
Format: physicochemical
Settings: for dissolution in Sample 3 solvent system: Sample 3: 30 ml PEG400 + 0.75 grams MA; for dissolved material in aqueous solution: aqueous sample
Procedure: Vehicles for loading the active ingredient were prepared as illustrated in samples 1-4. Myristic acid (solid flakes) was dissolved in PEG400 upon warming the mixture in a warm water bath. Shaking accelerated the formation of the resulting clear solution. The following four concentrations of myristic acid (MA) in PEG400 were prepared and evaluated. Samples 1, 2, 3 and 4 were all clear solutions when the samples were allowed to attain ambient temperatures.
The samples as vehicles were loaded with NO enhancing agent. […] Samples 1 and 2 were initially liquid but formed a solid uniform gel over a period of several hours. Sample 3 was prepared by dissolving 0.75 grams of MA in 30 ml's of PEG400 and heating in a water bath (˜60-80 C) for ˜15 minutes. Sample 4 was prepared by dissolving 2.25 grams of MA in 30 mls of PEG400 and heating in a water bath (˜60-80 C) for ˜15 minutes. Both sample 3 and sample 4 were uniform solutions when the heating cycle was finished. Upon cooling sample 3 remained liquid whereas sample 4 formed a uniform gel. […]
The Sample 3 solvent system was also tested as a vehicle for loading potential with the following low solubility reagents using the above method: quercetin, berberine, N-acetyl cysteine amide (NACA) and N-acetyl cysteine ethyl ester (NAC-ethylester).
The solutions of the two lipophilic NAC derivatives were prepared using sodium nitrite saturated PEG400, resulting in a clear solution. […] NAC is water soluble and the two derivatives are marginally soluble in water. The two solutions were then treated with several drops of acetic acid to trigger the formation of nitrous acid from the nitrite which can then nitrosate the reactive thiol on both of the NAC derivatives. The solutions turned pink indicative of S-nitrosothiol formation. The solutions remained pink for several days. The corresponding aqueous solutions lost color within hours. The use of nitrite saturated PEG400 allows for formulations that can be used to generate NO and S-nitrosothiols through mixing with reagents that acidify the mixture. A double frangible pouch incorporated into a patch may be used for a sustained NO delivery vehicle suitable for topical and transdermal applications.

- dissolving of the added curcumin (1.5 grams Curcumin 95 in Samples 1, 2, 3 (30 ml PEG400 + myristic acid), warmed, cooled to ambient): almost all of the added curcumin
Compound: COc1cc(/C=C/C(=O)CC(=O)/C=C/c2ccc(O)c(OC)c2)ccc1O [Curcumin 95, curcumin]

- solubility in sodium nitrite saturated PEG400: limited solubility
- solubility in water: water soluble
Compound: CC(=O)N[C@@H](CS)C(=O)O [NAC, N-acetyl cysteine]

- dissolution in Sample 3 solvent system: substantial dissolution
Compound: CCOC(=O)[C@H](CS)NC(C)=O [NAC-ethylester, N-acetyl cysteine ethyl ester]

- dissolution in Sample 3 solvent system: substantial dissolution
- dissolved material in aqueous solution: minimal dissolved material
Compound: COc1ccc2cc3[n+](cc2c1OC)CCc1cc2c(cc1-3)OCO2 [berberine]

- dissolution in water (colour of liquid phase) (same amount of curcumin in same volume of water (3 g in 30 ml)): almost no color in the liquid phase
Compound: COc1cc(/C=C/C(=O)CC(=O)/C=C/c2ccc(O)c(OC)c2)ccc1O [curcumin]

- solubility of quercetin: 200-300 mg in 30 ml
- solubilization in Sample 3: high degree of solubilization
- dissolution in Sample 3 solvent system: substantial dissolution
- dissolved material in aqueous solution: minimal dissolved material
Compound: O=c1c(O)c(-c2ccc(O)c(O)c2)oc2cc(O)cc(O)c12 [quercetin]

- dissolution in Sample 3 solvent system: substantial dissolution
Compound: N-acetyl cysteine amide [NACA]
